According to the supplement of paper PMC12137928:
Counter-ions that a name gives are not always drawn.

Columns and labels:
[1] = tested on: HCT116; experiment: efficacy (maximum % inhibition of viability vs DMSO); higher = more cytotoxic; settings: 72 h
In short: (§1)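 For IC50 and maximal efficacy, four-parameter Hill fits were used. Input values were CellTiter-Glo luminescence from HCT116 cells seeded at 250 per well in 1536-well plates, normalized to vehicle (0%) and positive control (-100%). Pattern correction followed normalization.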

[2] = tested on: HCT116; settings: 72 h
In short: as §1

SMILES | efficacy ([1]; ICRF193 0 nM) | efficacy ([1]; ICRF193 200 nM) | IC50 cell viability ([2]; ICRF193 0 nM) | IC50 cell viability ([2]; ICRF193 200 nM)
C=CC(=O)N1CCC[C@@H](n2nc(-c3ccc(Oc4ccccc4)cc3)c3c(N)ncnc32)C1 | 47.6% | 72.8% | 23.1 µM | 29.1 µM
C=C[C@@H]1C[C@]1(NC(=O)[C@@H]1C[C@@H](Oc2ncc(OC)c3ccc(Cl)cc23)CN1C(=O)[C@@H](NC(=O)OC(C)(C)C)C(C)(C)C)C(=O)NS(=O)(=O)C1CC1 | 92.8% | 92.4% | 20.6 µM | 20.6 µM
CCCCC[C@H](O)C=C[C@H]1[C@@H](O)CC(=O)[C@@H]1CCCCCCC(=O)O | 73.2% | 73.8% | 20.6 µM | 23.1 µM
C[C@@H]1CCO[C@H]2Cn3cc(C(=O)NCc4ccc(F)cc4F)c(=O)c(O)c3C(=O)N12 | 82.5% | 106% | 25.9 µM | 20.6 µM
C#C[C@]1(OC(C)=O)CC[C@H]2[C@@H]3CCC4=CC(=NO)CC[C@@H]4[C@H]3CC[C@@]21CC (mixture of isomers) [Norgestimate] | 84% | 102% | 18.3 µM | 29.1 µM
CNCCC(Oc1ccc(C(F)(F)F)cc1)c1ccccc1 (racemic) [(+/-) -Fluoxetine] | 106% | 102% | 29.1 µM | 18.3 µM
CCCC1CCCCN1 (racemic) [dl-Coniine] | – | 66.1% | > 45.8 µM | 4.11 µM
O[C@@H](CNC[C@H](O)[C@H]1CCc2cc(F)ccc2O1)[C@@H]1CCc2cc(F)ccc2O1 (racemic) [rac Nebivolol hydrochloride] | 121% | 98.2% | 29.1 µM | 20.6 µM
CCCCCCCCCCCC[n+]1ccc2ccccc2c1 [2-Dodecylisoquinolinium tosylate] | 101% | 103% | 7.3 µM | 4.61 µM
O=C(Nc1ccc([N+](=O)[O-])cc1)Nc1ccc([N+](=O)[O-])cc1 [4,4'-Dinitrodiphenylurea] | – | 55.9% | > 45.8 µM | 29.1 µM
Nc1ncn([C@@H]2O[C@H](CO)[C@@H](O)[C@H]2O)c(=O)n1 [5-Azacitidine] | 121% | 98.6% | 8.2 µM | 8.2 µM
Nc1nc(=S)c2[nH]cnc2[nH]1 [6-Thioguanine] | 97.5% | 91.8% | 3.66 µM | 2.06 µM
OCC(CO)N[C@H]1C[C@](O)(CO)[C@@H](O)[C@H](O)[C@H]1O [Voglibose] | – | – | > 45.8 µM | > 45.8 µM
CCOC(=O)N[C@@H]1CC[C@@H]2[C@@H](C1)C[C@H]1C(=O)O[C@H](C)[C@H]1[C@H]2/C=C/c1ccc(-c2cccc(F)c2)cn1 [Vorapaxar Sulfate] | – | – | > 45.8 µM | > 45.8 µM
C[C@@H](c1ncncc1F)[C@](O)(Cn1cncn1)c1ccc(F)cc1F [Voriconazole] | – | – | > 45.8 µM | > 45.8 µM
CC(=O)CC(c1ccccc1)c1c(O)c2ccccc2oc1=O (stereo not drawn) [Warfarin sodium] | – | – | > 45.8 µM | > 45.8 µM
COC(=O)C1=C(C)NC(C)=C(C(=O)OCCc2ccc(N3CCN(C(c4ccccc4)c4ccccc4)CC3)cc2)C1c1cccc([N+](=O)[O-])c1 (stereo not drawn) [Watanidipine] | – | – | > 45.8 µM | > 45.8 µM
FC(F)(F)c1cccc(C2=CCN(CCc3ccc4ccccc4c3)CC2)c1 [Xaliproden hydrochloride] | – | – | > 45.8 µM | > 45.8 µM
CC1=C[C@H](O)CC(C)(C)[C@H]1/C=C/C(C)=C/C=C/C(C)=C/C=C/C=C(C)/C=C/C=C(C)/C=C/C1=C(C)C[C@@H](O)CC1(C)C [Xanthophyll] | – | – | > 45.8 µM | > 45.8 µM
CCOC(=O)CN[C@@H](C(=O)N1CC[C@H]1C(=O)NCc1ccc(/C(N)=N\O)cc1)C1CCCCC1 [Ximelagatran] | – | – | > 45.8 µM | > 45.8 µM
Cc1cccc(C)c1NC(=O)c1cc(S(N)(=O)=O)c(Cl)cc1O [Xipamide] | – | – | > 45.8 µM | > 45.8 µM

SMILES | efficacy ([1]; ICRF193 0 nM) | efficacy ([1]; ICRF193 200 nM) | IC50 cell viability ([2]; ICRF193 0 nM) | IC50 cell viability ([2]; ICRF193 200 nM)
Cc1cccc(C)c1NC1=NCCCS1 [Xylazine] | – | – | > 45.8 µM | > 45.8 µM
Cc1cc(C(C)(C)C)cc(C)c1CC1=NCCN1 [Xylometazoline hydrochloride] | – | – | > 45.8 µM | > 45.8 µM
COC(=O)[C@@H]1[C@H]2C[C@H]3c4[nH]c5ccccc5c4CCN3C[C@@H]2CC[C@@H]1O [Yohimbine] | – | – | > 45.8 µM | > 45.8 µM
C=CCCCCCCCCC(=O)[O-].C=CCCCCCCCCC(=O)[O-].[Zn+2] [ZINC UNDECYLENATE] | – | – | > 45.8 µM | > 45.8 µM
COc1cc(C(=O)NS(=O)(=O)c2ccccc2C)ccc1Cc1cn(C)c2ccc(NC(=O)OC3CCCC3)cc12 [Zafirlukast] | – | – | > 45.8 µM | > 45.8 µM
CC(C(=O)O)c1ccc2c(c1)CC(=O)c1ccccc1S2 (stereo not drawn) [Zaltoprofen] | – | – | > 45.8 µM | > 45.8 µM
CC(=O)N[C@H]1[C@H]([C@H](O)[C@H](O)CO)OC(C(=O)O)=C[C@@H]1NC(=N)N [Zanamivir] | – | – | > 45.8 µM | > 45.8 µM
O=C(CCC1CCN(Cc2ccccc2)CC1)c1ccc2c(c1)NCCCC2 [Zanapezil fumerate] | – | – | > 45.8 µM | > 45.8 µM
CC1=C(/C=C/C(C)=C/C=C/C(C)=C/C=C/C=C(C)/C=C/C=C(C)/C=C/C2=C(C)C[C@@H](O)CC2(C)C)C(C)(C)C[C@H](O)C1 [Zeaxanthin] | – | – | > 45.8 µM | > 45.8 µM
Oc1ccc([C@@H]2CNCc3c2ccc(O)c3O)cc1O [Zelandopam] | – | – | > 45.8 µM | > 45.8 µM
CC(c1cc2ccccc2s1)N(O)C(N)=O (stereo not drawn) [Zileuton] | – | – | > 45.8 µM | > 45.8 µM
CC(C)NC1CCn2c(=O)[nH]c3cccc(c32)C1O (stereo not drawn) [Zilpaterol·HCl] | – | – | > 45.8 µM | > 45.8 µM
CCCCN(CCCC)C(=S)[S-].CCCCN(CCCC)C(=S)[S-].[Zn+2] [Zinc dibutyldithiocarbamate] | – | – | > 45.8 µM | > 45.8 µM
O=C1Cc2cc(CCN3CCN(c4nsc5ccccc45)CC3)c(Cl)cc2N1 [Ziprasidone] | – | – | > 45.8 µM | > 45.8 µM
Cc1c(C(N)=O)cc([N+](=O)[O-])cc1[N+](=O)[O-] [Zoalene] | – | – | > 45.8 µM | > 45.8 µM
C[C@H](CSC(=O)c1ccccc1)C(=O)N1C[C@@H](Sc2ccccc2)C[C@H]1C(=O)O [Zofenopril] | – | – | > 45.8 µM | > 45.8 µM
Cc1nn(C)c2c1C(c1ccccc1F)=NCC(=O)N2C [Zolazepam Hydrochloride] | – | – | > 45.8 µM | > 45.8 µM
O=P(O)(O)C(O)(Cn1ccnc1)P(=O)(O)O [Zoledronic acid monohydrate] | – | – | > 45.8 µM | > 45.8 µM
CN(C)CCc1c[nH]c2ccc(C[C@H]3COC(=O)N3)cc12 [Zolmitriptan] | – | – | > 45.8 µM | > 45.8 µM
NS(=O)(=O)Cc1noc2ccccc12 [Zonisamide] | – | – | > 45.8 µM | > 45.8 µM
CN(C)CCOC1=Cc2ccccc2Sc2ccc(Cl)cc21 [Zotepine] | – | – | > 45.8 µM | > 45.8 µM

SMILES | efficacy ([1]; ICRF193 0 nM) | efficacy ([1]; ICRF193 200 nM) | IC50 cell viability ([2]; ICRF193 0 nM) | IC50 cell viability ([2]; ICRF193 200 nM)
OCCN1CCN(CCC=C2c3ccccc3Sc3ccc(Cl)cc32)CC1 [Zuclopenthixol (-)-10-Camphorsulfonic Acid Salt] | – | – | > 45.8 µM | > 45.8 µM
CCCCCCCCCC(=O)OCCN1CCN(CC/C=C2/c3ccccc3Sc3ccc(Cl)cc32)CC1 [Zuclopenthixol Decanoate] | – | – | > 45.8 µM | > 45.8 µM
NC(=O)CCCCC1CCSS1 (stereo not drawn) [alpha-Lipoic acid amide] | – | – | > 45.8 µM | > 45.8 µM
O=C(O)CCCCC1CCSS1 (stereo not drawn) [alpha-Lipoic acid] | – | – | > 45.8 µM | > 45.8 µM
CC1=C2[C@H]3OC(=O)[C@@H](C)[C@@H]3CC[C@@]2(C)C=CC1=O [alpha-Santonin] | – | – | > 45.8 µM | > 45.8 µM
CC1=C(/C=C/C(C)=C/C=C/C(C)=C/C=C/C=C(C)/C=C/C=C(C)/C=C/C2=C(C)CCCC2(C)C)C(C)(C)CCC1 [beta-Carotene] | – | – | > 45.8 µM | > 45.8 µM
O=P(O)(O)OC(CO)CO [beta-Glycerol phosphate disodium salt pentahydrate] | – | – | > 45.8 µM | > 45.8 µM
C=C(C)[C@H]1CC=C(C)CC1 [d-LIMONENE] | – | – | > 45.8 µM | > 45.8 µM
N[C@H](Cc1c[nH]c2ccccc12)C(=O)O [d-Tryptophan] | – | – | > 45.8 µM | > 45.8 µM
OC[C@@H]1NC[C@@H](O)[C@H](O)[C@H]1O [deoxynorjrimycin(1)] | – | – | > 45.8 µM | > 45.8 µM
COc1cc(/C=C/C(=O)O[C@H]2CC[C@]34C[C@]35CC[C@]3(C)[C@@H]([C@H](C)CCC=C(C)C)CC[C@@]3(C)[C@@H]5CC[C@H]4C2(C)C)ccc1O [gamma-Oryzanol] | – | – | > 45.8 µM | > 45.8 µM
COc1cccc(C(=O)CCN[C@@H](C)[C@H](O)c2ccccc2)c1 [l-Oxyfedrine hydrochloride] | – | – | > 45.8 µM | > 45.8 µM
Cc1cccc(O)c1 [m-Cresol] | – | – | > 45.8 µM | > 45.8 µM
CC(=O)Oc1cccc(C)c1 [m-Cresyl acetate] | – | – | > 45.8 µM | > 45.8 µM
O[C@H]1[C@H](O)[C@@H](O)[C@H](O)[C@@H](O)[C@H]1O [myo-Inositol] | – | – | > 45.8 µM | > 45.8 µM
Cc1ccccc1O [o-Cresol] | – | – | > 45.8 µM | > 45.8 µM
Clc1ccc(C(c2ccc(Cl)cc2)C(Cl)(Cl)Cl)cc1 [p,p'-DDT] | – | – | > 45.8 µM | > 45.8 µM
Nc1cc(Cl)c(NC2=NCCN2)c(Cl)c1 [p-Aminoclonidine hydrochloride] | – | – | > 45.8 µM | > 45.8 µM
Cc1ccc(O)cc1 [p-Cresol] | – | – | > 45.8 µM | > 45.8 µM
CC1(O)CCC(C(C)(C)O)CC1 (stereo not drawn) [p-Menthane-1,8-diol monohydrate] | – | – | > 45.8 µM | > 45.8 µM
O=C(O)/C=C(\CC(=O)O)C(=O)O [trans-Aconitic acid] | – | – | > 45.8 µM | > 45.8 µM
